# Data published in publication PMC3860322 (Leukemia & lymphoma, 2013).
# What was measured:
# [1] = Plasma pharmacokinetics of 17-AAG and its metabolite 17-AG; type: in vivo, patients; details: for AUC exposed: combined AUC of 17-AAG and 17-AG
# acute myeloid leukemia = details: phase I trial in AML, after one cycle of therapy; cited from earlier work
# cytochrome P450 3A4 = details: cited from earlier work
# [2] = 17-AAG in plasma, day 1 (17-AAG alone), 150 mg/m^2, n=8
# [3] = 17-AAG in plasma, day 1 (17-AAG alone), 200 mg/m^2, n=3
# [4] = 17-AAG in plasma, day 4 (17-AAG+PS-341), 150 mg/m^2, n=8
# [5] = 17-AAG in plasma, day 4 (17-AAG+PS-341), 200 mg/m^2, n=3
# [6] = 17-AAG, day 1 (17-AAG alone), 150 mg/m^2, n=8
# [7] = 17-AAG, day 1 (17-AAG alone), 200 mg/m^2, n=3
# [8] = 17-AAG, day 4 (17-AAG+PS-341), 150 mg/m^2, n=8
# [9] = 17-AAG, day 4 (17-AAG+PS-341), 200 mg/m^2, n=3
# [10] = metabolite 17-AG, day 1 (17-AAG alone), 17-AAG 150 mg/m^2, n=8
# [11] = metabolite 17-AG, day 1 (17-AAG alone), 17-AAG 200 mg/m^2, n=3
# [12] = metabolite 17-AG, day 4 (17-AAG+PS-341), 17-AAG 150 mg/m^2, n=8
# [13] = metabolite 17-AG, day 4 (17-AAG+PS-341), 17-AAG 200 mg/m^2, n=3
compound,measurement,setting,value
"C=CCNC1=C2C[C@@H](C)C[C@H](OC)[C@H](O)[C@@H](C)/C=C(\C)[C@H](OC(N)=O)[C@@H](OC)/C=C\C=C(/C)C(=O)NC(=CC1=O)C2=O [17-AAG, 17-Allylamino-17-demethoxygeldanamycin, reference compound]",Cmax,"[1]; 17-AAG in plasma, cycle 1 day 1 (17-AAG alone), 17-AAG 200 mg/m^2 IV, n=3",3814 ± 578 ng/mL
same,AUCtot,[1]; [2],5871 ± 2508 ng·h/mL
same,Terminal T1/2,[1]; [2],4.77 ± 1.15 h
same,AUCtot,[1]; [3],9002 ± 1970 ng·h/mL
same,Terminal T1/2,[1]; [3],4.59 ± 0.21 h
same,AUCtot,[1]; [4],6717 ± 2631 ng·h/mL
same,Terminal T1/2,[1]; [4],4.04 ± 0.86 h
same,AUCtot,[1]; [5],9142 ± 1358 ng·h/mL
same,Terminal T1/2,[1]; [5],3.78 ± 1.29 h
same,Clearance,[1]; [6],29.36 ± 11.11 L/h
same,Vss,[1]; [6],98.10 ± 37.46 L
same,Clearance,[1]; [7],22.92 ± 4.89 L/h
same,Vss,[1]; [7],73.30 ± 16.81 L
same,Clearance,[1]; [8],24.94 ± 8.10 L/h
same,Vss,[1]; [8],82.36 ± 19.91 L
same,Clearance,[1]; [9],21.92 ± 3.91 L/h
same,Vss,[1]; [9],86.83 ± 24.37 L
"CO[C@H]1/C=C\C=C(/C)C(=O)NC2=CC(=O)C(N)=C(C[C@@H](C)C[C@H](OC)[C@H](O)[C@@H](C)/C=C(\C)[C@@H]1OC(N)=O)C2=O [17-AG, 17-amino-17-demethoxygeldanamycin]",AUC exposed,"[1]; day 1 (17-AAG alone), 17-AAG 150 mg/m^2, n=8",12205 ± 8530 ng·h/mL
same,AUC exposed,"[1]; day 1 (17-AAG alone), 17-AAG 200 mg/m^2, n=3",18959 ± 3169 ng·h/mL
same,AUC exposed,"[1]; day 4 (17-AAG+PS-341), 17-AAG 150 mg/m^2, n=8",14468 ± 7179 ng·h/mL
same,AUC exposed,"[1]; day 4 (17-AAG+PS-341), 17-AAG 200 mg/m^2, n=3",22403 ± 1036 ng·h/mL
same,change in 17-AG clearance on co-administration with bortezomib,"[1]; day 4 (17-AAG+bortezomib) vs day 1 (17-AAG alone), all 11 patients, p=0.005",decrease in clearance
same,change in 17-AG AUC on co-administration with bortezomib,"[1]; day 4 (17-AAG+bortezomib) vs day 1 (17-AAG alone), all 11 patients, p=.032",increase in AUC
same,Cmax,"[1]; metabolite 17-AG in plasma, day 1 (17-AAG alone), 17-AAG 150 mg/m^2, n=8",821 ± 450 ng/mL
same,Cmax,"[1]; metabolite 17-AG in plasma, day 1 (17-AAG alone), 17-AAG 200 mg/m^2, n=3",1300 ± 421 ng/mL
same,Cmax,"[1]; metabolite 17-AG in plasma, day 4 (17-AAG+PS-341), 17-AAG 150 mg/m^2, n=8",1025 ± 445 ng/mL
same,Cmax,"[1]; metabolite 17-AG in plasma, day 4 (17-AAG+PS-341), 17-AAG 200 mg/m^2, n=3",1412 ± 26 ng/mL
same,Clearance,"[1]; metabolite 17-AG, apparent clearance, day 1 (17-AAG alone), 17-AAG 150 mg/m^2, n=8",41.35 ± 26.48 L/h
same,Clearance,"[1]; metabolite 17-AG, apparent clearance, day 1 (17-AAG alone), 17-AAG 200 mg/m^2, n=3",23.07 ± 12.01 L/h
same,Clearance,"[1]; metabolite 17-AG, apparent clearance, day 4 (17-AAG+PS-341), 17-AAG 150 mg/m^2, n=8",29.87 ± 23.29 L/h
same,Clearance,"[1]; metabolite 17-AG, apparent clearance, day 4 (17-AAG+PS-341), 17-AAG 200 mg/m^2, n=3",14.86 ± 1.55 L/h
same,AUCtot,[1]; [10],6334 ± 6244 ng·h/mL
same,Terminal T1/2,[1]; [10],11.16 ± 1.40 h
same,Tmax,[1]; [10],1.53 ± 0.42 h
same,AUCtot,[1]; [11],9957 ± 4258 ng·h/mL
same,Terminal T1/2,[1]; [11],7.92 ± 1.76 h
same,Tmax,[1]; [11],1.53 ± 0.46 h
same,AUCtot,[1]; [12],7751 ± 5028 ng·h/mL
same,Terminal T1/2,[1]; [12],10.53 ± 2.20 h
same,Tmax,[1]; [12],1.85 ± 1.10 h
same,AUCtot,[1]; [13],13261 ± 1216 ng·h/mL
same,Terminal T1/2,[1]; [13],7.47 ± 0.73 h
same,Tmax,[1]; [13],3.72 ± 0.64 h
CO[C@H]1/C=C\C=C(/C)C(=O)NC2=CC(=O)C(NCCN(C)C)=C(C[C@@H](C)C[C@H](OC)[C@H](O)[C@@H](C)/C=C(\C)[C@@H]1OC(N)=O)C2=O [alvespimycin],clinical response,acute myeloid leukemia,three patients achieved a complete remission with incomplete count recovery
CC(C)C[C@H](NC(=O)[C@H](Cc1ccccc1)NC(=O)c1cnccn1)B(O)O [bortezomib],metabolizing enzyme,cytochrome P450 3A4,metabolized by cytochrome P450 3A4
